# Reference: PubChem BioAssay (NCI)
#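 Assay format: 96-well plates, 48-hour exposure. GI50: concentration for 50% inhibition of growth. The concentration for full growth arrest is given as TGI.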
# Key:
# Experiment in all cases: DTP human tumour cell line panel, 48 h
# DU-145 prostate = tested on: DU-145 prostate
# OVCAR-3 ovarian = tested on: OVCAR-3 ovarian
# HS 578T breast = tested on: HS 578T breast
# KM12 colon = tested on: KM12 colon
# HCT-116 colon = tested on: HCT-116 colon
# RPMI-8226 leukemia = tested on: RPMI-8226 leukemia
# HOP-92 NSCLC = tested on: HOP-92 NSCLC
# UO-31 renal = tested on: UO-31 renal
# PC-3 prostate = tested on: PC-3 prostate
# COLO 205 colon = tested on: COLO 205 colon
# IGROV1 ovarian = tested on: IGROV1 ovarian
# SW-620 colon = tested on: SW-620 colon
# OVCAR-5 ovarian = tested on: OVCAR-5 ovarian
# HT29 colon = tested on: HT29 colon
# SK-OV-3 ovarian = tested on: SK-OV-3 ovarian
# SK-MEL-2 melanoma = tested on: SK-MEL-2 melanoma
# SNB-19 CNS = tested on: SNB-19 CNS
# NCI-H23 lung = tested on: NCI-H23 lung
# MCF7 breast = tested on: MCF7 breast
# NCI-H522 lung = tested on: NCI-H522 lung
# U251 CNS = tested on: U251 CNS
# CAKI-1 renal = tested on: CAKI-1 renal
# BT-549 breast = tested on: BT-549 breast
# UACC-62 melanoma = tested on: UACC-62 melanoma
# SK-MEL-5 melanoma = tested on: SK-MEL-5 melanoma
# SNB-75 CNS = tested on: SNB-75 CNS
# A549 NSCLC = tested on: A549 NSCLC
# LOX IMVI melanoma = tested on: LOX IMVI melanoma
# M14 melanoma = tested on: M14 melanoma
# CCRF-CEM leukemia = tested on: CCRF-CEM leukemia
# A498 renal = tested on: A498 renal
# TK-10 renal = tested on: TK-10 renal
# ACHN renal = tested on: ACHN renal
# SF-268 CNS = tested on: SF-268 CNS
# OVCAR-4 ovarian = tested on: OVCAR-4 ovarian
# SF-539 CNS = tested on: SF-539 CNS
# OVCAR-8 ovarian = tested on: OVCAR-8 ovarian
# K-562 leukemia = tested on: K-562 leukemia
# 786-0 renal = tested on: 786-0 renal
# HOP-62 NSCLC = tested on: HOP-62 NSCLC
# NCI-H226 lung = tested on: NCI-H226 lung
# SN12C renal = tested on: SN12C renal
# T-47D breast = tested on: T-47D breast
# NCI/ADR-RES ovarian = tested on: NCI/ADR-RES ovarian
# HCC-2998 colon = tested on: HCC-2998 colon
# MOLT-4 leukemia = tested on: MOLT-4 leukemia
# RXF 393 renal = tested on: RXF 393 renal
# HCT-15 colon = tested on: HCT-15 colon
# NCI-H460 lung = tested on: NCI-H460 lung
# HL-60(TB) leukemia = tested on: HL-60(TB) leukemia
# MALME-3M melanoma = tested on: MALME-3M melanoma
# SF-295 CNS = tested on: SF-295 CNS
# EKVX NSCLC = tested on: EKVX NSCLC
# UACC-257 melanoma = tested on: UACC-257 melanoma
# SR leukemia = tested on: SR leukemia
# MDA-MB-231 breast = tested on: MDA-MB-231 breast
structure (smiles),measurement,setting,value
CCO/C=N/C1=C(C#N)C(c2ccc(OC)cc2)c2sc3c(F)cccc3c2O1 (configuration not stated),GI50,DU-145 prostate,3.57 µM
same,TGI,DU-145 prostate,57.2 µM
same,GI50,OVCAR-3 ovarian,2200 nM
same,TGI,OVCAR-3 ovarian,9.7 µM
same,GI50,HS 578T breast,2110 nM
same,TGI,HS 578T breast,7.93 µM
same,GI50,KM12 colon,2520 nM
same,TGI,KM12 colon,72 µM
same,GI50,HCT-116 colon,2020 nM
same,TGI,HCT-116 colon,> 100 µM
same,GI50,RPMI-8226 leukemia,3.26 µM
same,TGI,RPMI-8226 leukemia,16.3 µM
same,GI50,HOP-92 NSCLC,3.21 µM
same,TGI,HOP-92 NSCLC,43.6 µM
same,GI50,UO-31 renal,4.03 µM
same,TGI,UO-31 renal,> 100 µM
same,GI50,PC-3 prostate,2860 nM
same,TGI,PC-3 prostate,> 100 µM
same,GI50,COLO 205 colon,3.33 µM
same,TGI,COLO 205 colon,15 µM
same,GI50,IGROV1 ovarian,2730 nM
same,TGI,IGROV1 ovarian,> 100 µM
same,GI50,SW-620 colon,2200 nM
same,TGI,SW-620 colon,> 100 µM
same,GI50,OVCAR-5 ovarian,6.8 µM
same,TGI,OVCAR-5 ovarian,76.3 µM
same,GI50,HT29 colon,3.23 µM
same,TGI,HT29 colon,16.6 µM
same,GI50,SK-OV-3 ovarian,4.67 µM
same,TGI,SK-OV-3 ovarian,> 100 µM
same,GI50,SK-MEL-2 melanoma,3.8 µM
same,TGI,SK-MEL-2 melanoma,78.3 µM
same,GI50,SNB-19 CNS,4.02 µM
same,TGI,SNB-19 CNS,> 100 µM
same,GI50,NCI-H23 lung,3.29 µM
same,TGI,NCI-H23 lung,> 100 µM
same,GI50,MCF7 breast,1440 nM
same,TGI,MCF7 breast,50.9 µM
same,GI50,NCI-H522 lung,569 nM
same,TGI,NCI-H522 lung,3.84 µM
same,GI50,U251 CNS,3.48 µM
same,TGI,U251 CNS,19.7 µM
same,GI50,CAKI-1 renal,3.3 µM
same,TGI,CAKI-1 renal,> 100 µM
same,GI50,BT-549 breast,7.17 µM
same,TGI,BT-549 breast,> 100 µM
same,GI50,UACC-62 melanoma,1840 nM
same,TGI,UACC-62 melanoma,> 100 µM
same,GI50,SK-MEL-5 melanoma,3.24 µM
same,TGI,SK-MEL-5 melanoma,15.7 µM
same,GI50,SNB-75 CNS,1660 nM
same,TGI,SNB-75 CNS,5.67 µM
same,GI50,A549 NSCLC,2220 nM
same,TGI,A549 NSCLC,> 100 µM
same,GI50,LOX IMVI melanoma,3.08 µM
same,TGI,LOX IMVI melanoma,12.4 µM
same,GI50,M14 melanoma,1700 nM
same,TGI,M14 melanoma,> 100 µM
same,GI50,CCRF-CEM leukemia,2690 nM
same,TGI,CCRF-CEM leukemia,28.7 µM
same,GI50,A498 renal,2180 nM
same,TGI,A498 renal,7.8 µM
same,GI50,TK-10 renal,6.74 µM
same,TGI,TK-10 renal,> 100 µM
same,GI50,ACHN renal,5.57 µM
same,TGI,ACHN renal,> 100 µM
same,GI50,SF-268 CNS,4.31 µM
same,TGI,SF-268 CNS,> 100 µM
same,GI50,OVCAR-4 ovarian,5.59 µM
same,TGI,OVCAR-4 ovarian,> 100 µM
same,GI50,SF-539 CNS,2180 nM
same,TGI,SF-539 CNS,6.28 µM
same,GI50,OVCAR-8 ovarian,4.06 µM
same,TGI,OVCAR-8 ovarian,> 100 µM
same,GI50,K-562 leukemia,537 nM
same,TGI,K-562 leukemia,> 100 µM
same,GI50,786-0 renal,4.85 µM
same,TGI,786-0 renal,68.9 µM
same,GI50,HOP-62 NSCLC,2900 nM
same,TGI,HOP-62 NSCLC,47.5 µM
same,GI50,NCI-H226 lung,2890 nM
same,TGI,NCI-H226 lung,42.1 µM
same,GI50,SN12C renal,3.75 µM
same,TGI,SN12C renal,55 µM
same,GI50,T-47D breast,3.51 µM
same,TGI,T-47D breast,> 100 µM
same,GI50,NCI/ADR-RES ovarian,1250 nM
same,TGI,NCI/ADR-RES ovarian,5.03 µM
same,GI50,HCC-2998 colon,5.12 µM
same,TGI,HCC-2998 colon,32.6 µM
same,GI50,MOLT-4 leukemia,2800 nM
same,TGI,MOLT-4 leukemia,13.5 µM
same,GI50,RXF 393 renal,2000 nM
same,TGI,RXF 393 renal,16.5 µM
same,GI50,HCT-15 colon,1670 nM
same,TGI,HCT-15 colon,26.7 µM
same,GI50,NCI-H460 lung,2820 nM
same,TGI,NCI-H460 lung,13.5 µM
same,GI50,HL-60(TB) leukemia,2000 nM
same,TGI,HL-60(TB) leukemia,5.5 µM
same,GI50,MALME-3M melanoma,11.3 µM
same,TGI,MALME-3M melanoma,> 100 µM
same,GI50,SF-295 CNS,4.44 µM
same,TGI,SF-295 CNS,62.3 µM
same,GI50,EKVX NSCLC,7.12 µM
same,TGI,EKVX NSCLC,> 100 µM
same,GI50,UACC-257 melanoma,14.8 µM
same,TGI,UACC-257 melanoma,> 100 µM
same,GI50,SR leukemia,1040 nM
same,TGI,SR leukemia,17.5 µM
same,GI50,MDA-MB-231 breast,3.87 µM
same,TGI,MDA-MB-231 breast,30.7 µM
